Where two headings read alike, the source gives them in different places.
Experiments:
[1] = test system: NCI 60 human cancer cell line panel; experiment: NCI 60 cell line screen (SRB), panel values; details: for CC50: read-out: Mean LC50; for IC (TGI (total growth inhibition)): read-out: Mean TGI
[2] = test system: HOP-62; experiment: NCI-60 SRB screen, non-small cell lung cancer; type: cell-based, human; details: Homo sapiens; HOP-62; five dose 0.01–100 µM, 48 h; read-out: GI50
[3] = test system: ACHN; experiment: NCI-60 SRB screen, renal cancer; type: cell-based, human; details: Homo sapiens, five dose 0.01–100 µM, 48 h, read-out: GI50
[4] = test system: HCT-2998; experiment: NCI-60 SRB screen, colon cancer; type: cell-based, human; details: Homo sapiens; HCT-2998; five dose 0.01–100 µM, 48 h; read-out: GI50
[5] = test system: HS 578T; experiment: NCI-60 SRB screen, breast cancer; type: cell-based; details: Homo sapiens; HS 578T; five dose 0.01–100 µM, 48 h; read-out: GI50
[6] = test system: KM12; experiment: NCI-60 SRB screen, colon cancer; type: cell-based, human; details: Homo sapiens; KM12; five dose 0.01–100 µM, 48 h; read-out: GI50
[7] = test system: MOLT-4; experiment: NCI-60 SRB screen, leukemia; type: cell-based, human; details: Homo sapiens; MOLT-4; five dose 0.01–100 µM, 48 h; read-out: GI50
[8] = test system: RPMI-8226; experiment: NCI-60 SRB screen, leukemia; type: cell-based, human; details: Homo sapiens; RPMI-8226; five dose 0.01–100 µM, 48 h; read-out: GI50
[9] = test system: SW-620; experiment: NCI-60 SRB screen, colon cancer; type: cell-based, human; details: Homo sapiens; SW-620; five dose 0.01–100 µM, 48 h; read-out: GI50
[10] = test system: U251; experiment: NCI-60 SRB screen, CNS cancer; type: cell-based, human; details: Homo sapiens, U-251; U251; five dose 0.01–100 µM, 48 h; read-out: GI50
[11] = test system: OVCAR-3; experiment: NCI-60 SRB screen, ovarian cancer; type: cell-based, human; details: Homo sapiens; OVCAR-3; five dose 0.01–100 µM, 48 h; read-out: GI50
[12] = test system: NCI-H552; experiment: NCI-60 SRB screen, non-small cell lung cancer; type: cell-based, human; details: Homo sapiens; NCI-H552; five dose 0.01–100 µM, 48 h; read-out: GI50
[13] = test system: NCI-H226; experiment: NCI-60 SRB screen, non-small cell lung cancer; type: cell-based; details: Homo sapiens; NCI-H226; five dose 0.01–100 µM, 48 h; read-out: GI50
[14] = test system: EKVX; experiment: NCI-60 SRB screen, non-small cell lung cancer; type: cell-based, human; details: Homo sapiens, five dose 0.01–100 µM, 48 h, read-out: GI50
[15] = test system: OVCAR-5; experiment: NCI-60 SRB screen, ovarian cancer; type: cell-based, human; details: Homo sapiens; OVCAR-5; five dose 0.01–100 µM, 48 h; read-out: GI50
[16] = test system: TK-10; experiment: NCI-60 SRB screen, renal cancer; type: cell-based, human; details: Homo sapiens; TK-10; five dose 0.01–100 µM, 48 h; read-out: GI50
[17] = test system: SK-MEL-28; experiment: NCI-60 SRB screen, melanoma; type: cell-based, human; details: Homo sapiens; SK-MEL-28; five dose 0.01–100 µM, 48 h; read-out: GI50
[18] = test system: MCF-7; experiment: cells; details: Homo sapiens, MCF7, 48 h
[19] = test system: SK-OV-3; experiment: NCI-60 SRB screen, ovarian cancer; type: cell-based, human; details: Homo sapiens; SK-OV-3; five dose 0.01–100 µM, 48 h; read-out: GI50
[20] = test system: MCF-7 human breast cancer cells; experiment: cells
Description: All biochemical assays were performed in triplicate for the determination of mean values reported. The human breast carcinoma cell line MCF-7 was purchased from the European Collection of Animal Cell Cultures (ECACC) and was cultured in Eagle’s minimum essential medium with 10% fetal bovine serum, 2 mM L-glutamine and 100 μg/mL penicillin/streptomycin. The medium was supplemented with 1% non-essential amino acids. […] All cells were sub-cultured 3 times/week by trypsinisation.
Cells were seeded at a density of 5 × 10^3 cells/well (MCF-7) in triplicate in 96-well plates. […] Cell proliferation for MCF-7 and MDA-MB-231 cells was analysed using the Alamar Blue assay (Invitrogen Corp.). […] Experiments were performed in triplicate on at least three separate occasions.

[21] = test system: SN12C; experiment: NCI-60 SRB screen, renal cancer; type: cell-based, human; details: Homo sapiens, five dose 0.01–100 µM, 48 h, read-out: GI50
[22] = test system: PC-3; experiment: NCI-60 SRB screen, prostate cancer; type: cell-based, human; details: Homo sapiens; PC-3; five dose 0.01–100 µM, 48 h; read-out: GI50
[23] = test system: SF295; experiment: NCI-60 SRB screen, CNS cancer; type: cell-based, human; details: Homo sapiens, SF-295; SF295; five dose 0.01–100 µM, 48 h; read-out: GI50
[24] = test system: MDA-MB-468; experiment: NCI-60 SRB screen, breast cancer; type: cell-based, human; details: Homo sapiens; MDA-MB-468; five dose 0.01–100 µM, 48 h; read-out: GI50
[25] = test system: NCI-H460; experiment: NCI-60 SRB screen, non-small cell lung cancer; type: cell-based, human; details: Homo sapiens; NCI-H460; five dose 0.01–100 µM, 48 h; read-out: GI50
[26] = test system: 786-0; experiment: NCI-60 SRB screen, renal cancer; type: cell-based, human; details: Homo sapiens; 786-0; five dose 0.01–100 µM, 48 h; read-out: GI50
[27] = test system: CAKI-1; experiment: NCI-60 SRB screen, renal cancer; type: cell-based, human; details: Homo sapiens; CAKI-1; five dose 0.01–100 µM, 48 h; read-out: GI50
[28] = test system: MDA-MB-231/ATCC; experiment: NCI-60 SRB screen, breast cancer; type: cell-based, human; details: Homo sapiens; MDA-MB-231/ATCC; five dose 0.01–100 µM, 48 h; read-out: GI50
[29] = test system: HCT-116; experiment: NCI-60 SRB screen, colon cancer; type: cell-based, human; details: Homo sapiens; HCT-116; five dose 0.01–100 µM, 48 h; read-out: GI50
[30] = test system: SK-MEL-5; experiment: NCI-60 SRB screen, melanoma; type: cell-based, human; details: Homo sapiens; SK-MEL-5; five dose 0.01–100 µM, 48 h; read-out: GI50
[31] = test system: NCI/ADR-RES; experiment: NCI-60 SRB screen, ovarian cancer; type: cell-based, human; details: Homo sapiens, five dose 0.01–100 µM, 48 h, read-out: GI50
[32] = test system: MALME-3M; experiment: NCI-60 SRB screen, melanoma; type: cell-based, human; details: Homo sapiens; MALME-3M; five dose 0.01–100 µM, 48 h; read-out: GI50
[33] = Homo sapiens, 60 cell, read-out: Mean GI50, mean over all NCI 60 cell lines

Compound	GI50 [1, 33] [nM]	CC50 ([1]; Homo sapiens, 60 cell) [nM]	IC (TGI (total growth inhibition)) ([1]; Homo sapiens, 60 cell) [nM]	GI50 [2] [nM]	GI50 [3] [nM]	GI50 [4] [nM]	GI50 [5] [nM]	GI50 [6] [nM]	GI50 [7] [nM]	GI50 [8] [nM]	GI50 [9] [nM]	GI50 [10] [nM]	GI50 [11] [nM]	GI50 [12] [nM]	GI50 [13] [nM]	GI50 [15] [nM]	GI50 [16] [nM]	GI50 [17] [nM]	GI50 [18] [nM]	GI50 [19] [nM]	other results
C=C(C)C1C(=O)N(c2cc(OC)c(OC)c(OC)c2)C1c1ccc(OC)c(N)c1 (stereo not shown) [9s, 4-(3-Amino-4-methoxyphenyl)-1-(3,4,5-trimethoxyphenyl)-3-(prop-1-en-2-yl)azetidin-2-one]	< 91.2	75900	22400	52.1	62	29.1	40.9	23.1	37.2	35.9	39.4	37.5	22.8	14.6	43.5	81.3	64.9	> 100000	32.4	31.7	GI50 ([1]; read-out: Mean GI50, mean over all NCI 60 cell lines): 55 nM; GI50 [14]: 587 nM; IC50 ([20]; MCF7, MCF-7): 33 nM; GI50 [21]: 62.9 nM; GI50 [22]: 37.9 nM; GI50 [23]: 34.4 nM; GI50 [24]: 21.6 nM; GI50 [25]: 33.2 nM; GI50 [26]: 37.6 nM; GI50 [27]: 49.1 nM; GI50 [28]: 31.5 nM; GI50 [29]: 30.2 nM; GI50 [30]: 23.2 nM; GI50 [31]: 18.5 nM
COc1ccc(C2C(C(C)C)C(=O)N2c2cc(OC)c(OC)c(OC)c2)cc1OP(=O)(O)O (stereo not shown) [15b, 5-(3-Isopropyl-1-(3,4,5-trimethoxyphenyl)-4-oxoazetidin-2-yl)-2-methoxyphenyl dihydrogen phosphate]	525	93300	44700	374	359	452	173	180	493	478	373	276	270	237	> 100000	2340	695	389	244	416	GI50 [32]: > 100000 nM; IC50 ([20]; MCF7, 72 h, read-out: Antiproliferative Activity IC50): 145000 ± 7760 nM; GI50 [21]: 463 nM; GI50 [22]: 278 nM; GI50 [23]: 137 nM; GI50 [24]: 273 nM; GI50 [25]: 325 nM; GI50 [26]: 439 nM; GI50 [27]: 320 nM; GI50 [28]: 215 nM; GI50 [29]: 319 nM; GI50 [30]: 164 nM; GI50 [31]: 212 nM
C=C(C)C1C(=O)N(c2cc(OC)c(OC)c(OC)c2)C1c1ccc(OC)c(OP(=O)(O)O)c1 (stereo not shown) [15a, 2-Methoxy-5-(4-oxo-3-(prop-1-en-2-yl)-1-(3,4,5-trimethoxyphenyl)azetidin-2-yl)-phenyl dihydrogen phosphate]	138	85100	43600	105	77.1	238	63.1	38.1	85.2	105	80.7	39.5	62.4	26	> 100000	535	43100	83.1	51.3	79.1	GI50 [32]: 30100 nM; IC50 ([20]; MCF7): 19 nM; GI50 [21]: 192 nM; GI50 [22]: 49.4 nM; GI50 [23]: 32.4 nM; GI50 [24]: 131 nM; GI50 [25]: 44.8 nM; GI50 [26]: 390 nM; GI50 [27]: 80.5 nM; GI50 [28]: 53.4 nM; GI50 [29]: 50.6 nM; GI50 [30]: 40.6 nM; GI50 [31]: 36.5 nM

From PMC10385824, “Antiproliferative and Tubulin-Destabilising Effects of 3-(Prop-1-en-2-yl)azetidin-2-Ones and Related Compounds in MCF-7 and MDA-MB-231 Breast Cancer Cells” (Pharmaceuticals, 2023)
